Results reported in patent US20220145406A1, “BIOMARKERS, AND USES IN TREATMENT OF VIRAL INFECTIONS, INFLAMMATIONS, OR CANCER” (ABIVAX, priority 2018, published 2022).

Test system: CD4+ T cells
Assay: RNAseq differential gene expression
Assay type: cell-based, human
From the text: All statistical analyses and plots were done with R software v3.5. For normalization and processing, we used edgeR v3.22.1, EDASeq v2.14 and DESeq2 v1.20. We decided to use counts per million (CPM) over transcripts per million (TPM) mainly because TPM discards a lot of information about the original count sizes and thus would have produced too much noise for differential testing. The first step was to filter the data. We considered a gene to be expressed at a reasonable level in a sample if it had at least five counts for each million mapped reads in that sample. For marker selection, we used a type 1^(*) error α threshold set to 5%. enabling a highly flexible approach to the differential analyses despite the lack of replicates. For the same reason, the log2 fold change cutoff was set to 1.5 for both positive and negative values, and the cutoff p-value was typically ≤0.05. Those appropriate cutoffs allowed us to identify differentially expressed genes. The false discovery rate (FDR) values were computed for illustration purposes but were not taken into account in the decision due to the lack of replicates. The first methodology choice was Benjamini and Hochberg. This procedure provides less stringent control of type 1 errors compared to familywise error rate (FWER) procedures (such as the Bonferroni correction). We added an MDS plot for the data with R and edgeR package. The MDS plot produces a plot in which distances between samples correspond to the leading biological coefficient of variation (BCV) between those samples. […] We also produced several volcano plots with R and the EDASeq package. These plots were a good representation of the differential expression (DE) testing in the RNA-Seq experiments. […] The green points highlighted are markers that satisfied our selection criteria (significant in both p-value and log2FC). The yellow points highlighted are genes that satisfied the log2FC criterion but failed the p-value criterion. We retained these points to investigate further even though they had no decisional value.
A full-detailed report describing the complete analysis was submitted to Gene Expression Omnibus (GEO, https://www.ncbi.nlm.nih.gov/geo/query/acc.cgi?acc=GSE116073). Total RNA extraction was performed according to the Qiagen miRNeasy □ kit. RNA concentrations were determined using Qubit[…] fluorometric quantification and purity by the RNA 6000 Bioanalyzer kit (Agilent). RNA-Seq libraries were constructed with the TruSeq stranded mRNA sample preparation (low-throughput protocol) kit from Illumina, according to the manufacturer's instructions. Aliquots of 1.2 μg of total RNA were used for the construction of the libraries. The final cDNA libraries were validated with a Fragment Analyzer (Advanced Analytical, Ankeny, Iowa) and quantified with a KAPA qPCR kit (Kapa Biosystems, Wilmington, Mass.). On the 8 sequencing lanes of a flow cell V4, the 32 libraries were pooled in equal proportions by sets of 4 libraries per lane, denatured with NaOH and diluted to […] before clustering. Cluster formation and primer hybridization and single-end read, 50-cycle sequencing were performed on the cBot and HiSeq 2500 (Illumina, San Diego, Calif.), respectively. Image analysis and base calling were performed using the HiSeq Control Software with the Real-Time Analysis component. Demultiplexing was performed using Illumina's sequencing analysis software. The quality of the data was assessed using FastQC from the Babraham Institute and the Illumina software SAV (Sequence Analysis Viewer). Potential contaminants were investigated with the FastQ Screen software from the Babraham Institute.
In the data preprocessing step, the HiSeq control and real-time analysis software generates image analysis, base calling, and base call quality automatically in real time. “Dirty” raw reads were defined as reads that contained adaptor sequence or high content of unknown bases and low-quality reads. […]

[1] = ABX464_I_vs_DMSO_I, infected CD4 T cells
[2] = ABX464_NI_vs_DMSO_NI, uninfected CD4 T cells
[3] = uninfected CD4+ T cells, ABX464 vs untreated

Compound: FC(F)(F)Oc1ccc(Nc2ccc3cccc(Cl)c3n2)cc1 [ABX464, 8-chloro-N-(4-(trifluoromethoxy)phenyl)quinolin-2-amine]
- FC CECR1 [1]: 3.412
- FC DPF2 [1]: 3.071
- FC LARS2 [1]: 2.991
- FC LGALS3 [1]: 3.009
- FC NBPF20 [1]: 8.164
- FC NOP9 [1]: 3.02
- FC SCML1 [1]: 7.214
- FC TOR1AIP2 [1]: 14.39
- log2(FC) CECR1 [1]: 1.771
- log2(FC) DPF2 [1]: 1.619
- log2(FC) LARS2 [1]: 1.58
- log2(FC) LGALS3 [1]: 1.589
- log2(FC) NBPF20 [1]: 3.029
- log2(FC) NOP9 [1]: 1.594
- log2(FC) SCML1 [1]: 2.851
- log2(FC) TOR1AIP2 [1]: 3.847
- FC CECR1 [2]: 3.587
- FC DPF2 [2]: 2.95
- FC HELLS [2]: 0.2107
- FC HIST1H1D [2]: 0.3392
- FC HOPX [2]: 3.35
- FC LARS2 [2]: 2.99
- FC MZT2B [2]: 0.3168
- FC NDUFB7 [2]: 0.3486
- FC RPS19BP1 [2]: 0.3377
- FC SCML1 [2]: 9.378
- FC SNORD3A [2]: 0.1318
- FC TOR1AIP2 [2]: 11.2
- log2(FC) CECR1 [2]: 1.843
- log2(FC) DPF2 [2]: 1.561
- log2(FC) HELLS [2]: −2.246
- log2(FC) HIST1H1D [2]: −1.56
- log2(FC) HOPX [2]: 1.744
- log2(FC) LARS2 [2]: 1.58
- log2(FC) MZT2B [2]: −1.658
- log2(FC) NDUFB7 [2]: −1.52
- log2(FC) RPS19BP1 [2]: −1.566
- log2(FC) SCML1 [2]: 3.229
- log2(FC) SNORD3A [2]: −2.924
- log2(FC) TOR1AIP2 [2]: 3.486
- number of upregulated genes (infected CD4+ T cells, ABX464 vs untreated): 9 genes
- number of downregulated genes (infected CD4+ T cells, ABX464 vs untreated (FIG. 2E legend)): 6 genes
- number of downregulated genes [3]: 6 genes
- number of upregulated genes [3]: 7 genes
